Legend:
[1] = target: T1, Glucocorticoid receptor (Homo sapiens, UniProt P04150); assay: Displacement of fluorescent-labeled Dexamethasone from GR by fluorescent polarization assay
T1 sequence (P04150 whole entry): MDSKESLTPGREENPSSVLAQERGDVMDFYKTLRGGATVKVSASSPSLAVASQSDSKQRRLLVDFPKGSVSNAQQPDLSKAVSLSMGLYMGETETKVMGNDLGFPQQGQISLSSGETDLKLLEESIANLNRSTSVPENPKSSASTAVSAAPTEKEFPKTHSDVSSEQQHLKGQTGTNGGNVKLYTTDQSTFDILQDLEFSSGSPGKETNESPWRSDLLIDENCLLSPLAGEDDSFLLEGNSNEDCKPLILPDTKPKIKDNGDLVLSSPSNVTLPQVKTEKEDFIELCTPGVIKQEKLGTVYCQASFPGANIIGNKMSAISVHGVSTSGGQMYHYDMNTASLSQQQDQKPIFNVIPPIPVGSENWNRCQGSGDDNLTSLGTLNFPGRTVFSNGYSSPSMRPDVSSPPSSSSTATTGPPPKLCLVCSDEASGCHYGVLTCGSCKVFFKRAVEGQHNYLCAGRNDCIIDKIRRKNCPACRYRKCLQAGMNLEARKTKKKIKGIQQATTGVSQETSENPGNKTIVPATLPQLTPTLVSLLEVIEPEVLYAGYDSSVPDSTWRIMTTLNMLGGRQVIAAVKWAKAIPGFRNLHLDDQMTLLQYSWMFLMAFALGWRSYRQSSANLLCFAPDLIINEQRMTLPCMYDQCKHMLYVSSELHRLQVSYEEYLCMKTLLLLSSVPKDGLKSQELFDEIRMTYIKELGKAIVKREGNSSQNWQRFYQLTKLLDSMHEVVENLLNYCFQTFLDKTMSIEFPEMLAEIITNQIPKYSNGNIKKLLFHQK

[2] = target: T1, Glucocorticoid receptor; assay: Activity at GR in human A549 cells by NF-kappaB transrepression assay; type: cell-based
[3] = target: T1, Glucocorticoid receptor; assay: Agonist activity at GR in human A549 cells transfected with luciferase gene linked to MMTV promoter assessed as luciferase transactivation activity after 24 hrs; type: functional, cell-based
[4] = Antiinflammatory activity in human primary synovial fibroblasts assessed as inhibition of IL1-induced IL8 release after 18 hrs by MSD technology; type: functional
[5] = Antiinflammatory activity in human primary synovial fibroblasts assessed as inhibition of IL1-induced MMP1 release after 18 hrs by MSD technology; type: functional
[6] = Toxicity in human skeletal muscle cells assessed as increase in glutamine synthase mRNA level after 18 hrs by PCR
[7] = system: Hepatocyte; assay: Toxicity in human hepatocytes assessed as increase in PEPCK mRNA level after 18 hrs by PCR; type: cell-based
[8] = Plasma clearance in CD rat at 1 mg/kg, po and 1 mg/kg, iv; type: ADME, organism-based
[9] = Volume of distribution at steady state in CD rat at 1 mg/kg, po and 1 mg/kg, iv; type: ADME, organism-based; details: in vivo, read-out: Vdss
[10] = Elimination half life in CD rat at 1 mg/kg, po and 1 mg/kg, iv; type: ADME, organism-based; details: in vivo, read-out: beta t1/2 (converted)
[11] = Oral bioavailability in CD rat at 1 mg/kg; type: ADME, organism-based; details: in vivo
[12] = Volume of distribution at steady state in DBA1 mouse at 1 mg/kg, po and 1 mg/kg, iv; type: ADME, organism-based; details: in vivo, read-out: Vdss
[13] = Tmax in CD rat at 1 mg/kg, po; type: ADME, organism-based; design: dose 1 mg/kg, route oral; details: in vivo
[14] = Plasma concentration in mouse bearing mouse NIH-3T3 cells integrated with MMTV reporter gene at 10 mg/kg, po after 1 hr; type: ADME, organism-based, NIH3T3; design: dose 10 mg/kg, route oral
[15] = Relative plasma concentration in mouse assessed as ratio of plasma concentration in mouse at 10 mg/kg, po to IC50 for NF-kappaB transrepression activity in A549 cells expressing MMTV reporter gene; type: ADME, organism-based; design: dose 10 mg/kg, route oral; details: in vivo
[16] = Plasma concentration in mouse bearing mouse NIH-3T3 cells integrated with MMTV reporter gene at 1 mg/kg, po after 1 hr; type: ADME, organism-based, NIH3T3; design: dose 1 mg/kg, route oral
[17] = Relative plasma concentration in mouse assessed as ratio of plasma concentration in mouse at 1 mg/kg, po to IC50 for NF-kappaB transrepression activity in A549 cells expressing MMTV reporter gene; type: ADME, organism-based; design: dose 1 mg/kg, route oral; details: in vivo
[18] = Relative fraction unbound in mouse assessed as ratio of fraction unbound in mouse at 1 mg/kg, po to IC50 for NF-kappaB transrepression activity in A549 cells expressing MMTV reporter gene; type: ADME, organism-based; design: dose 1 mg/kg, route oral; details: in vivo
[19] = Relative plasma concentration in mouse assessed as ratio of plasma concentration in mouse at 0.1 mg/kg, po to IC50 for NF-kappaB transrepression activity in A549 cells expressing MMTV reporter gene; type: ADME, organism-based; design: dose 0.1 mg/kg, route oral; details: in vivo
[20] = Relative fraction unbound in mouse assessed as ratio of fraction unbound in mouse at 0.1 mg/kg, po to IC50 for NF-kappaB transrepression activity in A549 cells expressing MMTV reporter gene; type: ADME, organism-based; design: dose 0.1 mg/kg, route oral; details: in vivo
[21] = Plasma concentration in mouse bearing mouse NIH-3T3 cells integrated with MMTV reporter gene at 100 mg/kg, po after 1 hr; type: ADME, organism-based, NIH3T3; design: dose 100 mg/kg, route oral
[22] = system: Mus musculus; assay: Inhibition of IL1-induced circulating IL6 release in mouse at 10 mg/kg, po; type: functional
[23] = system: Mus musculus; assay: Inhibition of IL1-induced circulating IL6 release in mouse at 0.1 mg/kg, po; type: functional
[24] = system: Mus musculus; assay: Inhibition of IL1-induced circulating IL6 release in mouse at 100 mg/kg, po; type: functional

O=S(=O)(Cc1ccccc1)Nc1ccc(-c2ccc3c(cnn3-c3ccc(F)cc3)c2)c(C(F)(F)F)c1
IC50 [1]: 10 nM
IC50 [2]: 10 nM
EC50 [3]: 20 nM
IC50 [4]: 2 nM
IC50 [5]: 1.26 nM
Activity [6]: Toxic
Activity [7]: Toxic
clearance [8]: 8 mL/min/kg
Vd [9]: 2 L/kg
half-life [10]: 3.3 h
bioavailability [11]: > 22%
Vd [12]: 1.8 L/kg
Tmax [13]: 6 h
concentration at 1 h [14]: 2730 nM
fold change (FC) [15]: 273
concentration at 1 h [16]: 290 nM
fold change (FC) [17]: 29
fold change (FC) [18]: 0.06
fold change (FC) [19]: 2.5
fold change (FC) [20]: 0.005
concentration at 1 h [21]: 12100 nM
inhibition in vivo at 10 mg/kg [22]: 44%
inhibition in vivo at 0.1 mg/kg [23]: 0%
inhibition in vivo at 100 mg/kg [24]: 57%
